# Where a name gives a salt, the structure may show the parent alone. Read-outs that look alike come from different tables or passages of the source.
# Experiments:
# [1] = tested on: human complement; test: Inhibition of complement-mediated hemolysis, human serum, sensitized sheep erythrocytes; assay type: biochemical
# Experimental: The ability to inhibit complement was also tested by assaying for inhibition of complement-mediated red cell lysis (hemolysis). The inhibition of hemolysis was determined as a function of compound concentration. The compounds to be tested were diluted in 0.1M Hepes buffer (0.15N NaCl, pH 7.4), and 50 μl were added to each well of a V-bottom microtiter plate. Human serum, used as the complement source, was diluted 1 to 500 in Hepes buffer, and 50 μl were added to each well. Next, commercially available sheep erythrocytes with anti-sheep antibody (Diamedix Cat. No. 789-001) were used as received and added at 100 μl/well to initiate the complement pathway leading to hemolysis. The plate was incubated for 60 minutes at 37° C. and then centrifuged at 500×g for 10 minutes. The supernatants were removed and placed in a flat-bottom microtiter plate. The extent of hemolysis was measured as a function of the sample absorbance at 410 nm. The maximal absorbance (corresponding to maximal hemolysis), Amax, was obtained from the absorbance value of an erythrocyte sample containing only human serum, AS, less the absorbance of a sample containing only the red cells, A0. Thus, Amax =AS -A0. The difference between the absorbance of an erythrocyte sample containing both human serum and inhibitive compound, and the absorbance of a cell sample containing inhibitive compound only, was defined as Asample. The inhibition, IH, was expressed as the fraction (Amax -Asample)/Amax, and IH50 was defined as the concentration of inhibitive compound required to produce a value of IH=1/2.
# The 4 substituted spirobenzofuran compounds of example 7 and the disubstituted spirobenzofuran compounds of example 8 were tested for their capacity to inhibit complement-mediated lysis of sheep red blood cells (SRBC) as described in Section 6.6.2 supra with the modification that the human serum used as the complement source was diluted to 1 to 100 in Hepes buffer, instead of […]. The results of the hemolysis assays are shown in FIG. 8 and Tables XI and XII.
# [2] = tested on: human peripheral blood lymphocytes (PBL); test: Inhibition of proliferation of peripheral blood lymphocytes, 3H-thymidine incorporation; assay type: cell-based; details: Lymphocyte, Table IX, 72 h
# Experimental: The proliferation of human peripheral blood lymphocytes (PBL) in response to phytohemagglutinin (PHA, Well-come) or anti-CD3 monoclonal antibody (OKT-3, Ortho) was assessed by the incorporation of ^3 H-thymidine. Compound 11a was diluted in culture media to the desired concentrations, human PBL were added to a final concentration of 10^6 cells/ml, and then either PHA (Wellcome) or anti-CD3 (OKT3, Ortho) antibody (final concentration, […]) was added to initiate proliferation. The final volume per sample was 100 μl. The cells were incubated for 72 hours after stimulation, pulsed with 1 μCi ^3 H-thymidine per sample for 4 hours, harvested, and counted in a scintillation counter. […] Because cell viability was unaffected by the presence of 11a (see supra), the inhibition apparently was not due to cytotoxic effects.
# [3] = Table VII, human serum, read-out: IHO50
# [4] = PHA stimulation, read-out: IP50 PHA-stimulated PBL
# [5] = anti-CD3 (OKT-3) stimulation, read-out: IP50 OKT-3-stimulated PBL
# [6] = Table XII, human serum diluted 1 to 100, read-out: IH50 Mean
# [7] = Table XI, human serum diluted 1 to 100, read-out: IH50 Mean
Compound,"IC50 [1, 3]","IC50 [1, 6]",further results
"CC1=CCC(C2(C)Cc3c(O)ccc(C(=O)O)c3O2)CC1 (single isomer, unassigned; (-)) [(-)-23a]",2400 µM,,"IC50 [2, 4]: 2800 µM; IC50 [2, 5]: 2000 µM"
O=C(O)c1ccc(O)c2c1OC1(CCCCC1)C2 [Compound 14a],3000 µM,,
COc1cc(C(=O)O)cc(O)c1CC1=CCCCC1 [Compound 15a],820 µM,,"IC50 [2, 4]: 700 µM; IC50 [2, 5]: 400 µM"
COc1cc(C(=O)O)cc2c1CC1(CCCCC1)O2 [Compound 30a],530 µM,,
O=C(O)c1cc(O)c2c(c1)OC1(CCCCC1)C2 [Compound 31a],1450 µM,1450 µM,
"CCOc1cc(C(=O)O)cc2c1CC1(CCCCC1)O2 [Compound 44b, 6-CARBOXYLATE-4-ETHOXY-SPIRO [BENZOFURAN-2(3H)-CYCLOHEXANE] SODIUM SALT]",,580 µM,
"O=C(O)c1cc(OCc2ccccc2)c2c(c1)OC1(CCCCC1)C2 [Compound 55a, 4-BENZYLOXY-6-CARBOXYLSPIRO[BENZOFURAN-2(3H)-CYCLOHEXANE]]",,2530 µM,
"CCCCOc1cc(C(=O)O)cc2c1CC1(CCCCC1)O2 [Compound 55b, 4-N-BUTYLOXY-6-CARBOXYLSPIRO[BENZOFURAN-2(3H)-CYCLOHEXANE]]",,430 µM,
"O=C(O)c1cc(Oc2ccccc2)c2c(c1)OC1(CCCCC1)C2 [Compound 55c, 6-CARBOXYL-4-PHENOXYSPIRO[BENZOFURAN-2(3H)-CYCLOHEXANE]]",,280 µM,effectiveness in inhibiting complement-mediated hemolysis compared with K76COOH [1]: more effective
"O=C(O)c1cc(OCCO)c2c(c1)OC1(CCCCC1)C2 [Compound 55d, 6-CARBOXYL-4-(2'-HYDROXYETHYLOXYSPIRO[BENZOFURAN-2(3H)-CYCLOHEXANE]]",,> 2800 µM,
"O=C(O)c1cc(Oc2ccc([N+](=O)[O-])cc2)c2c(c1)OC1(CCCCC1)C2 [Compound 55e, 6-CARBOXYL-4-P-NITROPHENOXYSPIRO [BENZOFURAN-2(3H)-CYCLOHEXANE]]",,305 µM,effectiveness in inhibiting complement-mediated hemolysis compared with K76COOH [1]: more effective
"O=C(O)c1ccc2c(c1)OC1(CCCCC1)C2 [Compound 55g, 6-CARBOXYLSPIRO[BENZOFURAN-2(3H)-CYCLOHEXANE]]",,2320 µM,
"Nc1ccc(Oc2cc(C(=O)O)cc3c2CC2(CCCCC2)O3)cc1 [Compound 55h, 4p-aminophenoxy-carboxyspiro[benzofuran2(3H)-cyclohexane]",,320 µM,effectiveness in inhibiting complement-mediated hemolysis compared with K76COOH [1]: more effective
"O=C(O)c1ccc(Oc2cc(C(=O)O)cc3c2CC2(CCCCC2)O3)cc1 [Compound 55i, 6-CARBOXYL-4-P-CARBOXYLPHENOXYSPIRO[BENZOFURAN-2(3H)-CYCLOHEXANE]]",,1450 µM,
"COc1cc(C=O)c(C(=O)O)c2c1CC1(CCCCC1)O2 [Compound 62, 7-CARBOXY-6-FORMYL-4-METHOXY PIRO[BENXOFURAN-2 (DH)-CYCLOHEXANE]",,,"IC50 [1, 7]: 1670 µM"
"COc1cc(C(=O)O)c(C(=O)O)c2c1CC1(CCCCC1)O2 [Compound 66, 6,7-DICARBOXYL-4-METHOXYSPIRO [BENZOFURAN-2(3H)-CYCLOHEXANE]]",,,"IC50 [1, 7]: 800 µM"
